From US10780067B2, “Endoxifen for local transdermal therapy to the breast” (Northwestern University, priority 2016, dated 2020)
“And” between values parts separate entries of the source, which are not always exact repeats. Equal entries are not always repeated.

Assays:
Assay type in all cases: in vivo, human
[1] = test system: SHBG; assay: Plasma SHBG ELISA, presurgical trial; conditions: mean ± SD
Method: (§1) Plasma samples collected with anticoagulant K3-EDTA were used for human IGF-1 and SHBG assays, and coagulation protein assays (factor VIII, factor IX, von Willebrand factor, and protein S)[23]. The human IGF-1 and SHBG assays were performed with Quantikine Enzyme-linked immunosorbent assay (ELISA) Kits (R&D Systems, Cat # DG100 for IGF-1, and Cat # DSHBGO for SHBG assay). The lower limit of detection was 56 pg/ml, and 5 pmol/L; % CV values were 4.3 and 5.6 for IGF-1, and SHBG assay, respectively. Factor VIII, and factor IX were determined with VisuLize™ antigen ELISA kits (Affinity Biologicals Inc.). von Willebrand factor was measured with immune-turbidimetric assay (Diagnostica Stago Inc. Cat #00518) by STAR analyzer, and total protein S was assayed with an ELISA kit (REAADSR Inc.)

[2] = Plasma, breast adipose tissue and NAF concentrations of tamoxifen and its metabolites (LC-MS/MS), presurgical trial
Excerpt: (§2) All participants provided informed consent. Baseline assessments included a history and physical, explanation of gel application, completion of the Breast Cancer Prevention Trial Eight Symptom Scale (BESS) questionnaire, collection of a venous blood sample, and collection of nipple aspirate fluid (NAF) from NAF yielders. […] Treatment began within 5 days post-randomization and ended on the day prior to surgical resection. Participants were instructed to apply the gel to the entire skin envelope of each breast each morning, after a shower. Duration of therapy was 6-10 weeks. Compliance was assessed through participant diaries, counts of returned pills and of returned gel canisters. Participants who took at least 80% of the prescribed dose were considered compliant.
Assessments similar to those performed at baseline were repeated on the day prior to, or on the morning of surgery. During surgery, breast adipose tissue from the surgical sample was snap frozen and stored at −80° C. for measurement of tamoxifen and metabolites. The samples were obtained from a location adjacent to the DCIS lesion to provide uniformity between participants undergoing breast conservation and mastectomy. The paraffin block of the core and excision samples were acquired by the recruiting institution and 10 sections from each specimen were submitted to the NU Pathology Core Facility. The sections were cut in batches (with pre- and post-treatment samples in the same batch), shipped cold, and processed for immunohistochemistry within four weeks.
(Z)-tamoxifen, (Z)-NDT, (E) and (Z)-4-OHT, and (Z)-endoxifen were measured by liquid chromatography-tandem mass spectrometry with a turbo ion spray interface operating in positive mode (API 3000; AB SCIEX, Foster City, Calif.). […] For analysis of NAF, samples were collected in a capillary tube and diluted with 200 μL of phosphate buffered saline; 100 μL of the diluted NAF sample was used for analysis. Breast adipose tissue samples, 25 mg, were minced and treated with 125 μL of […] and extracted as described above.
Retention times for (Z)-tamoxifen, (Z)-NDT, (Z)-4-OHT, (E)-4-OHT and (Z)-endoxifen were 7.3, 6.8, 5.1, 4.7 and 4.5 min, respectively. […] In three participants, matched samples were not available: breast adipose tissue was not collected in two, and the plasma sample was missing in one.
Since the fraction of E and Z isoforms of 4-OHT was of particular interest, we used an additional validated method to study plasma concentrations of these metabolites in a different laboratory (Eurofins Medinet, Chantilly, Va.): Plasma from blood samples collected in lithium-heparin tubes was frozen at −20° C., shipped in batches on dry ice to them Eurofins Medinet central laboratory; LC-MS/MS was used for the simultaneous determination of (E) 4-OHT and (Z) 4-OHT, with a lower limit of quantitation (LOQ) of 10 pg/mL and upper LOQ of 10,000 pg/mL. Eurofins Medinet developed and validated them method for BHR Pharma, in accordance with the FDA Guidance on Bioanalytical Method Validation.

[3] = BESS quality of life questionnaire and CTCAE adverse events, presurgical trial
Excerpt: as §2
The BESS Questionnaire was repeated at day 15 and at the end of treatment (1 day before surgery or day of surgery), and the post-surgical visit (approximately 7-14 days after surgery).
For continuous variables in the immunochemistry, drug concentration, and blood coagulation data, means and standard deviations are reported; the significance of changes between baseline and post-treatment within groups were evaluated with the paired t-test, and differences between treatment groups assessed using the unpaired t-test. For categorized demographic data, we examined the association of these variables with treatment group via Fisher's exact test. For the analysis of quality of life, the 33 symptoms in the BESS Questionnaire were divided into eight clusters as described by Cella et. al.. The mean score within each cluster was used to evaluate significance of changes from baseline to posttreatment within groups as well as the differences between treatment groups using the Wilcoxon signed-rank test.

[4] = test system: IGF-1; assay: Plasma IGF-1 ELISA, presurgical trial; conditions: mean ± SD
Method: as §1

[5] = at surgery after 6-10 weeks, mean ± SD, LLOQ 3 ng/g

For `CC/C(=C(\c1ccccc1)c1ccc(OCCN(C)C)cc1)c1ccccc1` [Tamoxifen, (Z)-tamoxifen], the SHBG post-treatment ([1]; plasma after 6-10 weeks) was 143.9 ± 69.0 ng/mL, the SHBG baseline ([1]; plasma before treatment) was 98.4 ± 45.0 ng/mL and the “SHBG Changes from baseline” value ([1]; plasma) was 45.5 ± 40.2 ng/mL. For the same compound, the “(E) 4-OHT concentration, plasma” value ([2]; after 6-10 weeks, mean ± SD, LLOQ 1 ng/mL) was “BQL”, the “(Z) Tamoxifen concentration, plasma” value ([2]; after 6-10 weeks, mean ± SD, LLOQ 20 ng/mL) was 90 ± 45 ng/mL and the “(E) 4-OHT concentration, breast adipose tissue” value [2, 5] was “BQL”. The “(Z) Tamoxifen concentration, breast adipose tissue” value [2, 5] was 2959 ± 1035 ng/g, the “plasma concentration of tamoxifen, individual participants” value ([2]; participants A, B and one with undetectable NAF levels, listed as oral-T) was 54 ng/mL and 94.3 ng/mL and 160 ng/mL and the “NAF concentration of endoxifen” value ([2]; post-treatment nipple aspirate fluid) was “undetectable”. The “NAF concentration of tamoxifen, individual participants” value ([2]; post-treatment nipple aspirate fluid, participants A, B, listed as oral-T) was 320 ng/mL and 182 ng/mL, the “NAF concentration of 4-OHT ((Z) 4-OHT), individual participants” value ([2]; post-treatment nipple aspirate fluid, participants C, D) was “undetectable” and the “BESS Vasomotor symptom cluster, baseline” value ([3]; hot flashes, night sweats, cold sweats, mean score ± SD) was 0.33 ± 0.45. The “BESS Bladder symptom cluster, Changes from baseline” value ([3]; mean score ± SD) was 0.11 ± 0.49, the “BESS Bladder symptom cluster, baseline” value ([3]; mean score ± SD) was 0.14 ± 0.36 and the “BESS Bladder symptom cluster, post-treatment” value ([3]; mean score ± SD) was 0.25 ± 0.33. The “BESS Body Image symptom cluster, Changes from baseline” value ([3]; mean score ± SD) was −0.04 ± 0.87, the “BESS Body Image symptom cluster, baseline” value ([3]; mean score ± SD) was 0.68 ± 0.77 and the “BESS Body Image symptom cluster, post-treatment” value ([3]; mean score ± SD) was 0.64 ± 0.89. The “BESS Body pain symptom cluster, Changes from baseline” value ([3]; mean score ± SD) was 0.43 ± 0.92, the “BESS Body pain symptom cluster, baseline” value ([3]; mean score ± SD) was 0.76 ± 1.12 and the “BESS Body pain symptom cluster, post-treatment” value ([3]; mean score ± SD) was 1.19 ± 1.11. For the same compound, the “BESS Cognitive symptom cluster, Changes from baseline” value ([3]; mean score ± SD) was 0.10 ± 0.86, the “BESS Cognitive symptom cluster, baseline” value ([3]; mean score ± SD) was 0.62 ± 0.61 and the “BESS Cognitive symptom cluster, post-treatment” value ([3]; mean score ± SD) was 0.71 ± 1.18. For the same compound, the “BESS Gastrointestinal symptom cluster, Changes from baseline” value ([3]; mean score ± SD) was −0.10 ± 0.24, the “BESS Gastrointestinal symptom cluster, baseline” value ([3]; mean score ± SD) was 0.12 ± 0.31 and the “BESS Gastrointestinal symptom cluster, post-treatment” value ([3]; mean score ± SD) was 0.02 ± 0.09. The “BESS Sexual problems symptom cluster, Changes from baseline” value ([3]; mean score ± SD) was −0.21 ± 0.54, the “BESS Sexual problems symptom cluster, baseline” value ([3]; mean score ± SD) was 0.32 ± 0.72 and the “BESS Sexual problems symptom cluster, post-treatment” value ([3]; mean score ± SD) was 0.11 ± 0.40. The “BESS Vaginal symptom cluster, Changes from baseline” value ([3]; mean score ± SD) was 0.07 ± 0.19, the “BESS Vaginal symptom cluster, baseline” value ([3]; mean score ± SD) was 0.00 ± 0.00 and the “BESS Vaginal symptom cluster, post-treatment” value ([3]; mean score ± SD) was 0.07 ± 0.19. The “BESS Vasomotor symptom cluster, Changes from baseline” value ([3]; mean score ± SD) was 0.55 ± 1.05, the “BESS Vasomotor symptom cluster, post-treatment” value ([3]; mean score ± SD) was 0.88 ± 1.26 and the “BESS Vaginal symptom cluster, baseline” value ([3]; mean score ± SD, listed as oral-T) was 0.00. The “serious adverse events (CTCAE)” value ([3]; whole study) was “no serious adverse events”, the IGF-1 post-treatment ([4]; plasma after 6-10 weeks) was 50.3 ± 9.7 ng/mL and the IGF-1 baseline ([4]; plasma before treatment) was 59.0 ± 11.4 ng/mL. The “IGF-1 Changes from baseline” value ([4]; plasma) was -8.7 ± 8.3 ng/mL.
